Patent US20260373103A1, “COMPOSITIONS AND METHODS FOR PREVENTING CARDIOMYOPATHY” (OHIO STATE INNOVATION FOUNDATION, priority 2022, published 2026)
Entries after “also recorded” stand apart in the source; their conditions may differ.

What was measured:
TOM40 = TOM40 protein level/degradation after A/O, immunoblotting; format: cell-based; settings: ST-539; HeLa-Parkin/USP30, A/O 18 h
Experimental: HeLa cells and mouse embryonic fibroblasts (MEFs) were grown in Dulbecco's minimum essential medium (DMEM) with 10% fetal bovine serum (FBS) supplemented with penicillin-streptomycin. HeLa Parkin, PINK1 KO cells, WT and MFN2 KO cells were previously described. Cells stably expressing USP30 were generated using lentiviral vectors of pLVX-Puro-Myc-USP30. The USP30 plasmid was obtained from Addgene. The plasmid was transferred into a lentiviral vector and viral particles were prepared by transiently transfecting HEK293T using standard methods. For the drug treatment experiments, cells were incubated in medium containing a mixture of 5 μM oligomycin and 5 μM antimycin A (A/O; see figures for treatment times). In 18 h treatment, A/O were used in combination with 10 μM quinolyl-valyl-O-methylaspartyl-[−2,6-difluorophenoxy]-methyl ketone (QVD), a broad-spectrum caspase inhibitor. […]
The enzymatic activity of Parkin is to function as an E3 ubiquitin ligase. […] We then employed this cellular assay to monitor TOM20 turnover, and analyzed compounds known to be associated with the ubiquitination process for inhibitors of USP30. […] Initially to assess mitophagy in cells, we monitored the degradation of the inner membrane protein, the translocase of the inner membrane 23 (TIM23), by immunoblotting (FIG. 5A). […]

[1] = system: HeLa-Parkin or HeLa-Parkin/USP30 cells; test: Mitochondrial membrane potential (TMRM signal); format: cell-based; settings: ST-539 3 to 10 μg/ml
Experimental: ΔΨm was measured using a fluorescence microplate reader (BioTek Instruments) in cells preincubated with Tetramethylrhodamine methyl ester (TMRM, Thermo Scientific) following manufacturer's instructions. Cells were washed in PBS before resuspension in Hank's balanced salt solution (HBSS; 156 mM NaCl, 3 mM KCl, 2 mM MgSO4, 1.25 mM KH2PO4, 2 mM CaCl2), 10 mM glucose and 10 mM HEPES; pH adjusted to 7.35 with NaOH) (1.0×10^6 cells/ml) containing 50 nM TMRM. For each individual experiment, average TMRM fluorescence was normalized to control cells.
We initially analyzed mitochondrial function using Tetramethylrhodamine (TMRM), a dye requiring mitochondrial membrane potential to accumulate within the mitochondria.

Mfn2^−/− MEF cells = test: Mitochondrial morphology, confocal imaging; format: cell-based, mouse; settings: 3 or 10 μg/ml ST-539, 24 h
Experimental: (§1) HeLa cells and mouse embryonic fibroblasts (MEFs) were grown in Dulbecco's minimum essential medium (DMEM) with 10% fetal bovine serum (FBS) supplemented with penicillin-streptomycin. HeLa Parkin, PINK1 KO cells, WT and MFN2 KO cells were previously described. Cells stably expressing USP30 were generated using lentiviral vectors of pLVX-Puro-Myc-USP30. The USP30 plasmid was obtained from Addgene. The plasmid was transferred into a lentiviral vector and viral particles were prepared by transiently transfecting HEK293T using standard methods. For the drug treatment experiments, cells were incubated in medium containing a mixture of 5 μM oligomycin and 5 μM antimycin A (A/O; see figures for treatment times). In 18 h treatment, A/O were used in combination with 10 μM quinolyl-valyl-O-methylaspartyl-[−2,6-difluorophenoxy]-methyl ketone (QVD), a broad-spectrum caspase inhibitor. ST51000539 (ST-539) was purchased from Tim Tec, Inc. Other chemicals were from Sigma-Aldrich (St. Louis, MO, USA). For FACS analysis, cells stably expressing mt-Keima were incubated in medium containing a mixture of […] antimycin A for 1.5 h. Prior to A/O treatment, cultures were treated with DMSO or ST-539 at 3 μg/ml. Cells were trypsinized, washed once with PBS buffer and then resuspended into 500 μl of PBS prior to analysis using a BD Fortessa flow cytometer as previously described.

wild type MEFs = test: Mitochondrial morphology, confocal imaging; format: cell-based, mouse; settings: ST-539 3 or 10 μg/ml, 24 h
Experimental: as §1

[2] = system: HeLa-Parkin and HeLa-Parkin cells expressing USP30; test: Cell proliferation; format: cell-based; settings: ST-539, 24 hours
[3] = system: liver tissue of mt-Keima mice; test: In vivo mitophagy in liver, mt-Keima mice; design: species or system mouse; settings: 25 mg/kg/day i.p. for 5 days
Experimental: Fluorescent samples were examined with a Zeiss LSM 780 confocal microscope (Carl Zeiss MicroImaging). As previously described^2, fluorescence of mt-Keima was imaged in two channels via two sequential excitations (458 nm, green; 561 nm, red) and using a 570- to 695-nm emission range. Confocal experiments for parkin translocation were performed using a HeLa cell line stably expressing YFP-Parkin plated on 35 mm coverglass #1.5 chamber dishes (MatTek). These cells were treated for 2 h with DMSO as vehicle control or with A/O. YFP was imaged with a 514-nm excitation and 520- to 570-emission filters. Representative confocal images were processed using Imaris software by contrast linear stretch only. Calculation of mitophagy based on mt-Keima signal was performed using Zeiss ZEN software as previously described^2. The average of four images from each tissue sample was taken, and the values were normalized to the average value seen in the controls, assigned the value of one.
The mt-Keima mouse. […] The mice were lightly anesthetized with isoflurane and the ejection fraction, fractional shortening, and ventricular chamber dimensions were determined using 2-D-guided M mode images. Ejection fraction, fractional shortening, ventricular chamber dimensions, and left ventricular mass were calculated automatically using the VevoLAB program. […]

`CC(C)(C)NS(=O)(=O)c1cccc2c(NC(=O)C(Cc3ccccc3)NC(=O)c3ccccc3)cccc12` (stereo not drawn) [ST-539] was tested. Which TOM40 degradation (TOM40) did it give?
Its TOM40 degradation is “restored TIM23 and TOM40 degradation”.

What about the “TMRM staining (mitochondrial membrane potential)” value [1] of the same molecule?
Its value is “did not block TMRM staining”.

What about the elongation of mitochondria (Mfn2^−/− MEF cells) of the same molecule?
Its elongation of mitochondria is “did not induce the elongation of mitochondria significantly”.

And the mitochondrial morphology (wild type MEFs)?
The mitochondrial morphology was “failed to change the mitochondrial morphology”.

And the cell proliferation [2]?
Its cell proliferation is “maintained”.

And the hepatic mitophagy [3]?
Its hepatic mitophagy is “remains unchanged; also recorded: inability of ST-539 to induce hepatic mitophagy”.
